Tests used:
COLO 320 [1] = assay: Induction of apoptosis in human COLO320 cells assessed as early apoptotic cells at 20 uM after 24 hrs by Annexin V-FITC/propidium iodide staining based flow cytometry (reference value: 20.3%); type: functional
COLO 320 [2] = assay: Induction of apoptosis in human COLO320 cells assessed as late apoptotic/necrotic cells at 20 uM after 24 hrs by Annexin V-FITC/propidium iodide staining based flow cytometry (reference value: 9.93%); type: functional
COLO 320 [3] = assay: Induction of apoptosis in human COLO320 cells assessed as cell death at 20 uM after 24 hrs by Annexin V-FITC/propidium iodide staining based flow cytometry (reference value: 4.75%); type: functional
COLO 205 = assay: Cytotoxicity against doxorubicin-sensitive human COLO205 cells after 24 hrs by MTT assay; type: functional, cell-based; conditions: COLO 205, 24 h
COLO 320 [4] = assay: Cytotoxicity against multidrug resistant human COLO320 cells after 24 hrs by MTT assay; type: functional, cell-based; conditions: COLO 320, 24 h
MRC5 = assay: Cytotoxicity against human MRC5 cells after 24 hrs by MTT assay; type: ADME, cell-based; conditions: MRC5, 24 h
COLO 320 [5] = assay: Induction of apoptosis in human COLO320 cells at 2 uM after 24 hrs by Annexin V-FITC/propidium iodide staining based flow cytometry relative to M627; type: functional
[6] = Selectivity index, ratio of IC50 for human MRC5 cells to IC50 for doxorubicin-sensitive human COLO205 cells; type: functional
[7] = Selectivity index, ratio of IC50 for human MRC5 cells to IC50 for multidrug resistant human COLO320 cells; type: functional
[8] = Selectivity index, ratio of IC50 for doxorubicin-sensitive human COLO205 cells to IC50 for multidrug resistant human COLO320 cells; type: functional
[9] = target: ATP-dependent translocase ABCB1 (Homo sapiens, UniProt P08183); assay: Inhibition of human MDR1 transfected in mouse T lymphoma cells assessed as rhodamine-123 accumulation measured as fluorescence activity ratio quotient at 2 uM preincubated for 10 mins followed by rhodamine-123 addition measured after 20 mins by flow cytometry relative to verapamil; type: cell-based; set-up: scale not given: the % may be the effect or the level left
Sequence of ATP-dependent translocase ABCB1 (P08183 whole entry): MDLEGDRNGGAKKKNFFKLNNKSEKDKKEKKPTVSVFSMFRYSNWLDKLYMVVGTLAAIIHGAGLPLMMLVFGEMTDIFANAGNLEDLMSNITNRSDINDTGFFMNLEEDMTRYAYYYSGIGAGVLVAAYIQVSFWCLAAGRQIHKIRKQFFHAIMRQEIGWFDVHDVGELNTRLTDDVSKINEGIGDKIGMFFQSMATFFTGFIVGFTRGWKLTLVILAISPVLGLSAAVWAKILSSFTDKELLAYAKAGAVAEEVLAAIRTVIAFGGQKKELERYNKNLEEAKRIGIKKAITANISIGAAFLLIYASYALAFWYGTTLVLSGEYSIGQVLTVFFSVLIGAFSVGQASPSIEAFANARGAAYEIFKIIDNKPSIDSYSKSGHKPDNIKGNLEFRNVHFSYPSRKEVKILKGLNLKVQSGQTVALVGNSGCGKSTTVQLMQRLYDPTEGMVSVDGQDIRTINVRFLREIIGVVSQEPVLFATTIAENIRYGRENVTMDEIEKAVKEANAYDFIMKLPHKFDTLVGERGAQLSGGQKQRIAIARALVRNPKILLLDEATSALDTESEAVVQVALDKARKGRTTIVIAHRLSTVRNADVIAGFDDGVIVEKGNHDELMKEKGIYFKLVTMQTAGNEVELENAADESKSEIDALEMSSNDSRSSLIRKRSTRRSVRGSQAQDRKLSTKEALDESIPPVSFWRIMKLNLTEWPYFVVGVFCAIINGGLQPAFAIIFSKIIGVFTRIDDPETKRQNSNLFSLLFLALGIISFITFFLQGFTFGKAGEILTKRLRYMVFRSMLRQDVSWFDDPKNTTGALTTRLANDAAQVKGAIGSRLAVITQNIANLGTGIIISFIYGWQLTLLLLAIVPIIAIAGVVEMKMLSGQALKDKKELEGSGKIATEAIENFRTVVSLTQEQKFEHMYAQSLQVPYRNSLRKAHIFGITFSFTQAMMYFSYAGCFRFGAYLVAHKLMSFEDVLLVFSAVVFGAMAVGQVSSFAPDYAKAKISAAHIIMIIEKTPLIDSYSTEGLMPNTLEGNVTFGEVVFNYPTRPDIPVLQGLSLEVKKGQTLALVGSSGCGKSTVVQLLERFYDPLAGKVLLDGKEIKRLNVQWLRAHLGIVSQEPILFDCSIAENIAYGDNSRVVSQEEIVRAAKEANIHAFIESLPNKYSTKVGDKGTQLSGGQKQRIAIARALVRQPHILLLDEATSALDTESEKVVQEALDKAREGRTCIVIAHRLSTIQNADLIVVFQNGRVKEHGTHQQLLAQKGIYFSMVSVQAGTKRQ

SMILES	Activity (COLO 320 [1]) [%]	Activity (COLO 320 [2]) [%]	Activity (COLO 320 [3]) [%]	IC50 (COLO 205) [µM]	IC50 (COLO 320 [4]) [µM]	IC50 (MRC5) [µM]	Activity (COLO 320 [5]) [%]	Ratio IC50 [6]	Ratio IC50 [7]	Ratio IC50 [8]	Activity [9] [%]
c1ccc2c(c1)Nc1c(ccc3ccccc13)S2	58.5	22	2.91	–	–	–	–	–	–	–	–
N.N#CS	–	–	–	> 100	> 100	> 100	9.55	–	–	–	–
COC(=O)C[Se]C(=O)c1ccc(Cl)cc1	–	–	–	> 100	> 100	33.4	43.4	<=0.33	<=0.33	–	–
NC(=O)C[Se]C(=O)c1ccccc1	–	–	–	> 100	> 100	76.6	37.3	<=0.77	<=0.77	–	–
O=C1OC(=O)c2ccccc21 [PHTHALIC ANHYDRIDE]	–	–	–	> 100	> 100	> 100	6.06	–	–	–	–
CC(C)(C)C(=O)C[Se]C(=O)c1ccc(Cl)cc1	–	–	–	1.63	0.96	8.1	80.3	5	8.4	1.7	34 to 217
CC(=O)C[Se]C(=O)c1ccc(Cl)cc1	–	–	–	5.48	0.55	5.35	87.7	0.98	9.7	10	–
C[Se]C(=O)c1cccc(C(=O)[Se]C)n1	–	–	–	> 100	> 100	17.9	36.9	<=0.18	<=0.18	–	–
C[Se]C(=O)c1ccc(C(=O)[Se]C)s1	–	–	–	> 100	> 100	4.26	30.4	<=0.04	<=0.04	–	–
N#C[O-].[K+]	–	–	–	> 100	> 100	> 100	7.28	–	–	–	–
N#C[Se-].[K+]	–	–	–	> 100	> 100	> 100	6.98	–	–	–	–
COc1cc(OC)cc(C(=O)[Se]CC(=O)C(C)(C)C)c1	–	–	–	1.19	0.35	5.04	88.7	4.2	14.4	3.4	46 to 228
C[Se]C(=O)c1cccc(C(=O)[Se]C)c1	–	–	–	> 100	12.5	28.4	36.3	<=0.28	2.3	>=8	–
O=C(C[Se]C(=O)c1ccccc1)Oc1ccccc1	–	–	–	> 100	53.7	> 100	43	–	>=1.9	>=1.9	–
C[Se]C(=O)c1ccc(C(=O)[Se]C)cc1	–	–	–	> 100	> 100	61.5	36.9	<=0.62	<=0.62	–	–
O=C1[Se]C(=O)c2ccccc21	–	–	–	> 100	63.9	> 100	88.4	–	>=1.6	>=1.6	–
